The first experiment deals with T1, STING (Homo sapiens, UniProt Q86WV6, G230A/H232R/R293Q/R71H).
T1 construct: host or cells: THP-1 / THP1-Dual / THP1-Lucia ISG cells
T1 sequence (Q86WV6 whole entry R71H/G230A/H232R/R293Q): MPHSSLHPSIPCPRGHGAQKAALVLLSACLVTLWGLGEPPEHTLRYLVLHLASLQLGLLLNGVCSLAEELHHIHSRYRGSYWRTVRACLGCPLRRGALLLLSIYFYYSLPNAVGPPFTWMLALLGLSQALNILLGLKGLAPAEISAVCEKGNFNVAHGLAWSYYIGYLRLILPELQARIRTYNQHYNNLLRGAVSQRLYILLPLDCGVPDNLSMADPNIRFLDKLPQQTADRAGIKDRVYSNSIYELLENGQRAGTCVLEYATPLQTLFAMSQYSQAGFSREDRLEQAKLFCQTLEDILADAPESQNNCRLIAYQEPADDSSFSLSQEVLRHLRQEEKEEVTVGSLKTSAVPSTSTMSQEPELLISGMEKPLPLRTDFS
Description: STING pathway activity in THP1-Dual/THP-1 cells upon cGAMP or MSA-2 stimulation (luciferase/interferon readout). Format: cell-based. To be noted: 10 μM compound; cGAMP (100 μM) or MSA-2 (10 μM) stimulation; THP-1 cells. The source says:
(§1) Methods of measuring STING activity and by extension, the activity of the compounds discussed herein, are known in the art. As an example, the STING pathway activity may be evaluated using reporter cell lines where a reporter gene (i.e., luciferase, GFP) is expressed under direct or indirect control of interferon response elements. For example, in an exemplary embodiment, the STING pathway can be measured using THP1-Dual™ cells (InvivoGen) which express the Lucia gene (a secreted luciferase reporter gene) under the control of an ISG54 minimal promoter in conjunction with five IFN-stimulated response elements. The STING pathway, when activated, stimulates interferon release which, in this model, will increase luciferase expression in a detectable manner. When inhibited, interferon release will be decreased, reducing luciferase expression in a detectable manner. The compounds can optionally be tested in the presence of external stimulation (i.e., using cGAMP, a natural agonist of STING, or MSA-2).
The STING pathway activity was evaluated in THP1-Dual™ cells (Invivogen). […] After incubating at 37° C. for 16 hours, the luciferase activity was measured by QUANTI-Luc™ (Invivogen).
Turning to `CC1(C)C(=O)N(Cc2c(Oc3cc(F)cc(F)c3)cccc2C(F)(F)F)c2ccc(C(F)(F)F)cc21` [UT202, 1-(2-(3,5-difluorophenoxy)-6-(trifluoromethyl)benzyl)-3,3-dimethyl-5-(trifluoromethyl)indolin-2-one], the inhibition (usually the percentage by which the read-out fell short of the control) at 10 µM is less than 50%.
On the same count and under the same terms, for `CC1(C)C(=O)N(Cc2c(F)cccc2C(N)=O)c2cc(C(=O)NCc3c(F)cc(F)cc3F)ccc21` [UT126, 1-(2-carbamoyl-6-fluorobenzyl)-3,3-dimethyl-2-oxo-N-(2,4,6-trifluorobenzyl) indoline-6-carboxamide] the value was less than 50%; for `Cc1nn(C)c(CN2C(=O)C(C)(C)c3ccc(C(=O)NCc4cc5ccccc5[nH]4)cc32)c1C` [UT157, N-((1H-indol-2-yl)methyl)-3,3-dimethyl-2-oxo-1-((1,3,4-trimethyl-1H-pyrazol-5-yl)methyl)indoline-6-carboxamide], less than 50%.
Still for that read-out and setting: for `CC1(C)C(=O)N(Cc2c(Oc3cc(F)cc(F)c3)cccc2C(F)(F)F)c2cc3c(cc21)OCO3` [UT203, 5-(2-(3,5-difluorophenoxy)-6-(trifluoromethyl)benzyl)-7,7-dimethyl-5,7-dihydro-6H-[1,3]dioxolo[4,5-f]indol-6-one] the value was more than 50%.
The same measure, in the same setting: under `CC1C(=O)N(Cc2c(F)cccc2C(F)(F)F)c2cc(C(=O)NCc3c(F)cc(F)cc3F)ccc2[C@@H]1C` (stereo partly drawn) [UT153, (4R)-1-(2-fluoro-6-(trifluoromethyl)benzyl)-3,4-dimethyl-2-oxo-N-(2,4,6-trifluorobenzyl)-1,2,3,4-tetrahydroquinoline-7-carboxamide] stands less than 50%; under `CC1C(=O)N(Cc2c(F)cccc2C(F)(F)F)c2cc(C(=O)NCc3cc4ccccc4[nH]3)ccc2[C@@H]1C` (stereo partly drawn) [UT158, (4R)-N-((1H-indol-2-yl)methyl)-1-(2-fluoro-6-(trifluoromethyl)benzyl)-3,4-dimethyl-2-oxo-1,2,3,4-tetrahydroquinoline-7-carboxamide], less than 50%; under `Cc1nn(C)c(CN2C(=O)C(C)[C@@H](C)c3ccc(C(=O)NCc4cc5ccccc5[nH]4)cc32)c1C` (stereo partly drawn) [UT160, (4R)-N-((1H-indol-2-yl)methyl)-3,4-dimethyl-2-oxo-1-((1,3,4-trimethyl-1H-pyrazol-5-yl)methyl)-1,2,3,4-tetrahydroquinoline-7-carboxamide], less than 50%.
For `CC1(C)C(=O)N(Cc2c(Oc3cc(F)cc(F)c3)cccc2C(F)(F)F)c2ccc(C#N)cc21` [UT201, 1-(2-(3,5-difluorophenoxy)-6-(trifluoromethyl)benzyl)-3,3-dimethyl-2-oxoindoline-5-carbonitrile], the inhibition at 10 µM was less than 50%.
Consider `CC1C(=O)N(Cc2c(F)cc(F)cc2F)c2cc(C(=O)NCc3cc4ccccc4[nH]3)ccc2[C@@H]1C` (stereo partly drawn) [UT156, (4R)-N-((1H-indol-2-yl)methyl)-3,4-dimethyl-2-oxo-1-(2,4,6-trifluorobenzyl)-1,2,3,4-tetrahydroquinoline-7-carboxamide], for which the inhibition at 10 µM was more than 50%.
The same measure, in the same setting: for `CC1(C)C(=O)N(Cc2c(Oc3cc(F)cc(F)c3)cccc2C(F)(F)F)c2cc(C#N)ccc21` [UT200, 1-(2-(3,5-difluorophenoxy)-6-(trifluoromethyl)benzyl)-3,3-dimethyl-2-oxoindoline-6-carbonitrile] the value was more than 50%; for `CC1(C)C(=O)N(Cc2c(F)cccc2C(F)(F)F)c2cc(C(=O)NCc3cc4ccccc4[nH]3)ccc21` [UT142, N-((1H-indol-2-yl)methyl)-1-(2-fluoro-6-(trifluoromethyl)benzyl)-3,3-dimethyl-2-oxoindoline-6-carboxamide], more than 50%; for `CC1(C)C(=O)N(Cc2c(F)cc(F)cc2F)c2cc(C(=O)NCc3cc4ccccc4[nH]3)ccc21` [UT141, N-((1H-indol-2-yl)methyl)-3,3-dimethyl-2-oxo-1-(2,4,6-trifluorobenzyl)indoline-6-carboxamide], more than 50%.
In turn, `Cc1nn(C)c(CN2C(=O)C(C)[C@@H](C)c3ccc(C(=O)NCc4cc5ccccc5[nH]4)cc32)c1Br` (stereo partly drawn) [UT151, (4R)-N-((1H-indol-2-yl)methyl)-1-((4-bromo-1,3-dimethyl-1H-pyrazol-5-yl)methyl)-3,4-dimethyl-2-oxo-1,2,3,4-tetrahydroquinoline-7-carboxamide] came in with an inhibition at 10 µM of less than 50%.
Same read-out and setting: under `CC1(C)C(=O)N(Cc2c(Oc3cc(F)cc(F)c3)cccc2C(F)(F)F)c2cc(C(F)(F)F)ccc21` [UT149, 1-(2-(3,5-difluorophenoxy)-6-(trifluoromethyl)benzyl)-3,3-dimethyl-6-(trifluoromethyl)indolin-2-one] stands less than 50%.

The experiment is the same for the next values; noted with them: THP-1 cells; 10 μM MSA2; increasing concentrations of compound.
`Cc1nn(C)c(CN2C(=O)C(C)(C)c3ccc(C(=O)NCc4cc5ccccc5[nH]4)cc32)c1C` [UT157, N-((1H-indol-2-yl)methyl)-3,3-dimethyl-2-oxo-1-((1,3,4-trimethyl-1H-pyrazol-5-yl)methyl)indoline-6-carboxamide]: the “Induction of interferon production in the presence of MSA2” value is “inhibited in a dose dependent manner”.
The same measure, in the same setting: for `CC1(C)C(=O)N(Cc2c(F)cccc2C(F)(F)F)c2cc(C(=O)NCc3cc4ccccc4[nH]3)ccc21` [UT142, N-((1H-indol-2-yl)methyl)-1-(2-fluoro-6-(trifluoromethyl)benzyl)-3,3-dimethyl-2-oxoindoline-6-carboxamide] the value was “inhibited in a dose dependent manner”; for `CC1(C)C(=O)N(Cc2c(F)cc(F)cc2F)c2cc(C(=O)NCc3cc4ccccc4[nH]3)ccc21` [UT141, N-((1H-indol-2-yl)methyl)-3,3-dimethyl-2-oxo-1-(2,4,6-trifluorobenzyl)indoline-6-carboxamide], “inhibited in a dose dependent manner”.

In another experiment the target is T1, STING. Description: Interferon production in THP-1 cells under basal conditions (no external stimulation). In kind it is cell-based. Particulars: 32 μM compound; no external stimulation; THP-1 cells.
Source text: as §1
Compounds UT017, UT018, UT019 and UT0122 were tested for their ability to interfere with STING signaling. Interferon production in the presence of increasing concentrations of UT017, UT018, UT019 or UT0122 were measured in THP-1 cell lines under basal conditions. […] Compound UT0122 was further tested in THP1-Lucia™ ISG cells for interferon production at varying concentration, in the presence of an increasing dose of a STING agonist cGAMP.
The STING pathway activity was evaluated in THP1-Dual™ cells (Invivogen). 1.5×10^5 THP1-Dual™ cells were seeded in 96-well plates and treated with the test compound followed by cGAMP (100 uM) or MSA-2 (10 uM, Science 2020, 369, eaba6098) 2 hours later. After incubating at 37° C. for 16 hours, the luciferase activity was measured by QUANTI-Luc™ (Invivogen).
Regarding `CC1(C)C(=O)N(Cc2c(F)cc(F)cc2F)c2cc(C(=O)NCc3cc4ccccc4o3)ccc21` [UT114, N-(benzofuran-2-ylmethyl)-3,3-dimethyl-2-oxo-1-(2,4,6-trifluorobenzyl)indoline-6-carboxamide], the “Activity (inhibition under basal conditions)” value is listed as “D*”.
On the same count and under the same terms, under `CC1(C)C(=O)N(Cc2c(F)cccc2F)c2cc(-c3coc(-c4cccc(F)c4)n3)ccc21` [UT117, 1-(2,6-difluorobenzyl)-6-(2-(3-fluorophenyl)oxazol-4-yl)-3,3-dimethylindolin-2-one] stands “D*”; under `CC1(C)C(=O)N(Cc2c(F)cccc2F)c2cc(-c3cn(-c4ccccc4)nn3)ccc21` [UT118, 1-(2,6-difluorobenzyl)-3,3-dimethyl-6-(1-phenyl-1H-1,2,3-triazol-4-yl)indolin-2-one], “D*”.
Turning to `CC1(C)C(=O)N(Cc2c(F)cc(F)cc2F)c2cc(C(=O)NCc3cc4cc(F)c(F)cc4o3)ccc21` [UT120, N-((5,6-difluorobenzofuran-2-yl)methyl)-3,3-dimethyl-2-oxo-1-(2,4,6-trifluorobenzyl) indoline-6-carboxamide], the “Activity (inhibition under basal conditions)” value was “D*”.
The compound `CC1(C)C(=O)N(Cc2c(Cl)cccc2OCc2cc(F)cc(F)c2)c2cc(F)ccc21` [UT072, 1-(2-chloro-6-((3,5-difluorobenzyl)oxy)benzyl)-6-fluoro-3,3-dimethylindolin-2-one] gave an inhibition at 32 µM of less than 50%.
In the case of `C[C@H](NC(=O)c1ccc2c(c1)N(Cc1c(F)cccc1Cl)C(=O)C2(C)C)c1c(F)cc(F)cc1F` [UT066, (S)-1-(2-chloro-6-fluorobenzyl)-3,3-dimethyl-2-oxo-N-(1-(2,4,6-trifluorophenyl)ethyl) indoline-6-carboxamide], the “Activity (inhibition under basal conditions)” value is given as “D*”.
Same read-out and setting: for `Cc1nn(C)c(CN2C(=O)C(C)(C)c3ccc(C(=O)NCc4cc5ccccc5s4)cc32)c1Br` [UT121, N-(benzo[b]thiophen-2-ylmethyl)-1-((4-bromo-1,3-dimethyl-1H-pyrazol-5-yl)methyl)-3,3-dimethyl-2-oxoindoline-6-carboxamide] the value was “D*”; for `C[C@@H](NC(=O)c1ccc2c(c1)N(Cc1c(F)cccc1Cl)C(=O)C2(C)C)c1c(F)cc(F)cc1F` [UT065, (R)-1-(2-chloro-6-fluorobenzyl)-3,3-dimethyl-2-oxo-N-(1-(2,4,6-trifluorophenyl)ethyl) indoline-6-carboxamide], “D*”.
`CC1(C)C(=O)N(Cc2c(Cl)cccc2Oc2cc(F)cc(F)c2)c2cc(F)ccc21` [UT074, 1-(2-chloro-6-(3,5-difluorophenoxy)benzyl)-6-fluoro-3,3-dimethylindolin-2-one] returned an inhibition at 32 µM of less than 50%.
With `CC1(C)C(=O)N(Cc2c(F)cccc2F)c2cc(-c3ncc(-c4c(F)cc(F)cc4F)o3)ccc21` [UT115, 1-(2,6-difluorobenzyl)-3,3-dimethyl-6-(5-(2,4,6-trifluorophenyl)oxazol-2-yl)indolin-2-one], the “Activity (inhibition under basal conditions)” value is “D*”.
Regarding `CC1(C)C(=O)N(Cc2c(Cl)cccc2OCc2cc(F)cc(F)c2)c2cc(C(F)(F)F)ccc21` [UT071a, 1-(2-chloro-6-((3,5-difluorobenzyl)oxy)benzyl)-3,3-dimethyl-6-(trifluoromethyl)indolin-2-one], the inhibition at 32 µM was less than 50%.

Values taken from patent US20250170120A1, “ALLOSTERIC STING MODULATORS AND METHODS OF USE” (THE BOARD OF REGENTS OF THE UNIVERSITY OF TEXAS SYSTEM, priority 2022, published 2025).
